These results are taken from ChEMBL document CHEMBL1153890, “Total synthesis and biological evaluation of novel C2-C6 region analogues of dictyostatin” (Bioorg Med Chem, 2009).

Test [1] is described as follows: Growth inhibition of paclitaxel-resistant human NCI/ADR cells after 72 hrs by MTT assay. In kind it is functional, cell-based. The conditions noted are these: NCI/ADR-RES. (Tetrazolium dyes change colour on reduction, which living cells bring about.)
For test [2], the system named is PANC-1. Briefly: Cell cycle arrest in human PANC1 cells assessed as accumulation at S phase at 100 nM after 24 hrs by flow cytometry. In kind it is functional.
The subject of test [3] is PANC-1. Briefly: Cell cycle arrest in human PANC1 cells assessed as accumulation at G2/M phase at 100 nM after 24 hrs by flow cytometry. In kind it is functional. Background: Flow cytometry measures light scatter and fluorescence of single cells or particles in a stream.
Test [4] concerns PANC-1. Briefly: Cell cycle arrest in human PANC1 cells assessed as accumulation at G1 phase at 100 nM after 24 hrs by flow cytometry. In kind it is functional.
The subject of another test is DLD-1. Briefly: Growth inhibition of human DLD1 cells after 72 hrs by MTT assay. In kind it is functional, cell-based. The conditions noted are these: DLD-1, 72 h.
The next test deals with ASPC1. The experiment in a line: Growth inhibition of human AsPC1 cells after 72 hrs by MTT assay. In kind it is functional, cell-based. The conditions noted are these: ASPC1, 72 h.
The subject of test [5] is PANC-1. Briefly: Growth inhibition of human PANC1 cells after 72 hrs by MTT assay. The conditions noted are these: PANC-1, 72 h. In kind it is functional, cell-based.

Structures are written as SMILES.

What is called IC50 is the concentration needed to halve the response being measured. Low values mean inhibition by little substance, high ones a need for much substance. The molecule `C=C/C=C\[C@H](C)[C@@H]1OC(=O)/C=C\C=C\[C@@H](C)[C@@H](O)C[C@H](O)/C=C\[C@H](C)[C@H](O)[C@@H](C)CCCC[C@@H](O)[C@@H]1C` had an IC50 in test [1] of 1500 nM.

Turning to `C=C/C=C\[C@H](C)[C@@H]1OC(=O)CC/C=C/[C@@H](C)[C@@H](O)C[C@H](O)/C=C\[C@H](C)[C@H](O)[C@@H](C)C[C@@H](C)CC[C@@H](O)[C@@H]1C`, the Activity came out at 17% with PANC-1 [2], 75% in the test with PANC-1 [3] and 9% in the test with PANC-1 [4].

As for `C=C/C=C\[C@H](C)[C@@H]1OC(=O)/C=C\C=C\C[C@@H](O)C[C@H](O)/C=C\[C@H](C)[C@H](O)[C@@H](C)C[C@@H](C)CC[C@@H](O)[C@@H]1C`, the Activity is listed as 17% in the test with PANC-1 [2], 76% with PANC-1 [3] and 8% with PANC-1 [4].

As for `C=C/C=C\[C@H](C)[C@H](O)[C@@H](C)[C@H]1CC[C@H](C)C[C@H](C)[C@@H](O)[C@@H](C)/C=C\[C@@H](O)C[C@H](O)[C@H](C)/C=C/CCC(=O)O1`, the 50% inhibitory concentration (IC50) came out at 930 nM with DLD-1, 3100 nM in the test with ASPC1, 1300 nM with PANC-1 [5] and 1600 nM in test [1].

Take `C=C/C=C\[C@H](C)[C@H](O)[C@@H](C)[C@H]1CC[C@H](C)C[C@H](C)[C@@H](O)[C@@H](C)/C=C\[C@@H](O)C[C@H](O)[C@H](C)CCCCC(=O)O1`: the IC50 in the test on DLD-1 stood at 1500 nM; with ASPC1, 4900 nM; with PANC-1 [5] it was 3200 nM; in test [1] it was 3100 nM.

`C=C/C=C\[C@H](C)[C@@H]1OC(=O)CCCC[C@@H](C)[C@@H](O)C[C@H](O)/C=C\[C@H](C)[C@H](O)[C@@H](C)C[C@@H](C)CC[C@@H](O)[C@@H]1C`: the Activity was found to be 9% in the test with PANC-1 [2], 84% with PANC-1 [3] and 6% in the test with PANC-1 [4].

In the case of `C=C/C=C\[C@H](C)[C@@H]1OC(=O)/C=C\C=C\[C@@H](C)[C@@H](O)C[C@H](O)/C=C\[C@H](C)[C@H](O)[C@@H](C)C[C@@H](C)CC[C@@H](O)[C@@H]1C` [DICTYOSTATIN], the results for the Activity with PANC-1 [2], in the test with PANC-1 [3] and in the test with PANC-1 [4] were 14%, 82% and 4.2%, respectively.
